Assay results as given in patent publication US11464770B2, “Anticancer pharmaceutical composition” (NATIONAL CANCER CENTER, priority 2016, dated 2022).
Where two headings read alike, the source gives them in different places.

Test system: colorectal cancer cell lines (e.g. DLD-1, HCT 116, SW620, HCT-15, HCT-8, RKO)
Experiment: Cell based assay, cell viability (CellTiter-Glo), colorectal cancer cell lines
Description: Commercially available bladder cancer, prostate cancer, lung cancer, breast cancer, blood cancer, pancreatic cancer, colorectal cancer, brain cancer, neuroblastoma, melanoma, liver cancer, cervical carcinoma, ovarian cancer, renal cancer, and papilloma cell lines were each treated with trypsin-EDTA and cultured, followed by being seeded in each well of a 96 well plate. After 24 hours of treatment at constant temperature, the respective cells were treated with the candidate compound so that a final concentration became 0 to 2 μM. The treated cells were additionally cultured for 72 hours, and cell viability was measured by using an ATP detection method (CellTiter-Glo® Luminescent Cell Viability Assay, Promega).

[1] = Homo sapiens, DLD-1, 72 hours treatment, read-out: IC50, colorectal cancer cell line DLD-1
[2] = Homo sapiens, HCT 116, 72 hours treatment, read-out: IC50, colorectal cancer cell line HCT 116
[3] = Homo sapiens, HCT-8, 72 hours treatment, read-out: IC50, colorectal cancer cell line HCT-8
[4] = Homo sapiens, HCT-15, 72 hours treatment, read-out: IC50, colorectal cancer cell line HCT-15
[5] = Homo sapiens, HT-29, 72 hours treatment, read-out: IC50, colorectal cancer cell line HT-29
[6] = Homo sapiens, LoVo, 72 hours treatment, read-out: IC50, colorectal cancer cell line LoVo
[7] = Homo sapiens, SW480, 72 hours treatment, read-out: IC50, colorectal cancer cell line SW480
[8] = Homo sapiens, SW-620, SW620, 72 hours treatment, read-out: IC50, colorectal cancer cell line SW620
[9] = RKO, 72 hours treatment, read-out: IC50, colorectal cancer cell line RKO
[10] = Homo sapiens, DLD-1 cells, 72 hours treatment, read-out: IC50, colorectal cancer cell line DLD-1
[11] = Homo sapiens, HCT 116 cells, 72 hours treatment, read-out: IC50, colorectal cancer cell line HCT 116
[12] = Homo sapiens, HCT-8 cells, 72 hours treatment, read-out: IC50, colorectal cancer cell line HCT-8
[13] = Homo sapiens, HCT-15 cells, 72 hours treatment, read-out: IC50, colorectal cancer cell line HCT-15
[14] = Homo sapiens, HT-29 cells, 72 hours treatment, read-out: IC50, colorectal cancer cell line HT-29
[15] = Homo sapiens, LoVo cells, 72 hours treatment, read-out: IC50, colorectal cancer cell line LoVo
[16] = Homo sapiens, RKO cells, 72 hours treatment, read-out: IC50, colorectal cancer cell line RKO
[17] = Homo sapiens, SW480 cells, 72 hours treatment, read-out: IC50, colorectal cancer cell line SW480
[18] = Homo sapiens, SW-620, SW620 cells, 72 hours treatment, read-out: IC50, colorectal cancer cell line SW620

| SMILES | IC50 [1] [nM] | IC50 [2] [nM] | IC50 [3] [nM] | IC50 [4] [nM] | IC50 [5] [nM] | IC50 [6] [nM] | IC50 [7] [nM] | IC50 [8] [nM] | IC50 [9] [nM] | IC50 [10] [nM] | IC50 [11] [nM] | IC50 [12] [nM] | IC50 [13] [nM] | IC50 [14] [nM] | IC50 [15] [nM] | IC50 [16] [nM] | IC50 [17] [nM] | IC50 [18] [nM] |
| --- | --- | --- | --- | --- | --- | --- | --- | --- | --- | --- | --- | --- | --- | --- | --- | --- | --- | --- |
| CC(=O)c1c(Sc2ccccc2)[nH]c2c(Br)ccc(Cl)c2c1=O [Compound 12, 3-acetyl-8-bromo-5-chloro-2-(phenylthio)quinolin-4(1H)-one] | > 2000 | > 2000 | > 2000 | > 2000 | > 10000 | > 2000 | > 2000 | > 2000 | > 2000 | – | – | – | – | – | – | – | – | – |
| CC(=O)c1c([S+]([O-])Cc2cccc(S(F)(F)(F)(F)F)c2)[nH]c2c(Br)ccc(Cl)c2c1=O (stereo not drawn) [Compound 77, 3-acetyl-8-bromo-5-chloro-2-((3-(pentafluoro--sulfanyl)benzyl)sulfinyl)quinolin-4(1H)-one] | 920 | 1450 | 1700 | 1240 | > 10000 | > 2000 | 1800 | 1680 | 1290 | – | – | – | – | – | – | – | – | – |
| CC(=O)c1c([S+]([O-])Cc2ccc(Cl)cc2)[nH]c2c(Br)ccc(Cl)c2c1=O (stereo not drawn) [Compound 11, 3-acetyl-8-bromo-5-chloro-2-((4-chlorobenzyl)sulfinyl)quinolin-4(1H)-one] | 820 | > 2000 | > 2000 | > 2000 | > 10000 | > 2000 | > 2000 | > 2000 | > 2000 | – | – | – | – | – | – | – | – | – |
| CC(=O)c1c(SCc2cccc(I)c2)[nH]c2c(Br)ccc(Cl)c2c1=O [Compound 47, 3-acetyl-8-bromo-5-chloro-2-((3-iodobenzyl)thio)quinolin-4(1H)-one] | > 2000 | > 2000 | > 2000 | > 2000 | > 10000 | > 2000 | > 2000 | > 2000 | > 2000 | – | – | – | – | – | – | – | – | – |
| CCS(=O)(=O)n1c([S+](C)[O-])c(C(C)=O)c(=O)c2c(Cl)ccc(Br)c21 (stereo not drawn) [Compound 39, 3-acetyl-8-bromo-5-chloro-1-(ethylsulfonyl)-2-(methylsulfinyl)quinolin-4(1H)-one] | > 2000 | > 2000 | > 2000 | > 2000 | > 10000 | > 2000 | > 2000 | > 2000 | > 2000 | – | – | – | – | – | – | – | – | – |
| CC(=O)c1c([S+]([O-])C(C)c2ccccc2)[nH]c2c(Br)ccc(Cl)c2c1=O (stereo not drawn) [Compound 26, 3-acetyl-8-bromo-5-chloro-2-((1-phenylethyl)sulfinyl)quinolin-4(1H)-one] | > 2000 | > 2000 | > 2000 | > 2000 | > 10000 | > 2000 | > 2000 | > 2000 | 1790 | – | – | – | – | – | – | – | – | – |
| CC(C)C(=O)c1c([S+]([O-])Cc2ccc(SC(F)(F)F)cc2)[nH]c2c(F)ccc(F)c2c1=O (stereo not drawn) [Compound 85, 5,8-difluoro-3-isobutyryl-2-((4-((trifluoromethyl)thio)benzyl)sulfinyl)quinolin-4(1H)-one] | – | – | – | – | – | – | – | – | – | > 2000 | > 2000 | > 2000 | > 2000 | > 10000 | > 2000 | > 2000 | > 2000 | > 2000 |
| CSc1c(C(C)=O)c(=O)c2cc(F)ccc2n1C [Compound 7, 3-acetyl-6-fluoro-1-methyl-2-(methylthio)quinolin-4(1H)-one] | > 2000 | > 2000 | > 2000 | > 2000 | > 10000 | > 2000 | > 2000 | > 2000 | > 2000 | – | – | – | – | – | – | – | – | – |
| COC(=O)c1ccc(C[S+]([O-])c2[nH]c3c(Cl)ccc(Cl)c3c(=O)c2C(C)=O)cc1 (stereo not drawn) [Compound 91, methyl 4-(((3-acetyl-5,8-dichloro-4-oxo-1,4-dihydroquinolin-2-yl)sulfinyl)methyl)benzoate] | – | – | – | – | – | – | – | – | – | 1820 | > 2000 | > 2000 | > 2000 | > 10000 | > 2000 | 1410 | > 2000 | > 2000 |
| CC(=O)c1c([S+]([O-])Cc2cccc(I)c2)[nH]c2c(Br)ccc(Cl)c2c1=O (stereo not drawn) [Compound 48, 3-acetyl-8-bromo-5-chloro-2-((3-iodobenzyl)sulfinyl)quinolin-4(1H)-one] | 1600 | > 2000 | > 2000 | > 2000 | > 10000 | > 2000 | > 2000 | > 2000 | > 2000 | – | – | – | – | – | – | – | – | – |
| CSc1c(C(C)=O)c(=O)c2c(Cl)ccc(Br)c2n1S(=O)(=O)c1ccc([N+](=O)[O-])cc1 [Compound 38, 3-acetyl-8-bromo-5-chloro-2-(methylthio)-1-((4-nitrophenyl)sulfonyl)quinolin-4(1H)-one] | > 2000 | > 2000 | > 2000 | > 2000 | > 10000 | > 2000 | > 2000 | > 2000 | > 2000 | – | – | – | – | – | – | – | – | – |
| CC(=O)c1c([S+]([O-])Cc2ccc(C(F)(F)F)o2)[nH]c2c(F)ccc(F)c2c1=O (stereo not drawn) [Compound 81, 3-acetyl-5,8-difluoro-2-(((5-(trifluoromethyl)furan-2-yl)methyl)sulfinyl)quinolin-4(1H)-one] | > 2000 | > 2000 | > 2000 | > 2000 | > 10000 | > 2000 | > 2000 | > 2000 | > 2000 | – | – | – | – | – | – | – | – | – |
| CC(=O)c1c([S+]([O-])Cc2cccc(C#N)c2)[nH]c2c(Br)ccc(Cl)c2c1=O (stereo not drawn) [Compound 28, 3-(((3-acetyl-8-bromo-5-chloro-4-oxo-1,4-dihydroquinolin-2-yl)sulfinyl)methyl)benzonitrile] | 940 | 960 | 1300 | 1060 | > 10000 | 1900 | 1220 | 1090 | 1090 | – | – | – | – | – | – | – | – | – |
| O=C(c1ccccc1)c1c([S+]([O-])Cc2ccc(S(F)(F)(F)(F)F)cc2)[nH]c2c(F)ccc(F)c2c1=O (stereo not drawn) [Compound 87, 3-benzoyl-5,8-difluoro-2-((4-(pentafluoro--sulfanyl)benzyl)sulfinyl)quinolin-4(1H)-one] | – | – | – | – | – | – | – | – | – | > 2000 | > 2000 | > 2000 | > 2000 | > 10000 | > 2000 | > 2000 | > 2000 | > 2000 |
| CC(=O)c1c([S+]([O-])Cc2ccc(S(F)(F)(F)(F)F)cc2)[nH]c2c(F)ccc(F)c2c1=O (stereo not drawn) [Compound 80, 3-acetyl-5,8-difluoro-2-((4-(pentafluoro--sulfanyl)benzyl)sulfinyl)quinolin-4(1H)-one] | > 2000 | > 2000 | > 2000 | > 2000 | > 10000 | > 2000 | > 2000 | > 2000 | > 2000 | – | – | – | – | – | – | – | – | – |
| CC(=O)c1c([S+]([O-])c2ccc(Br)cc2)[nH]c2c(Br)ccc(Cl)c2c1=O (stereo not drawn) [Compound 17, 3-acetyl-8-bromo-2-((4-bromophenyl)sulfinyl)-5-chloroquinolin-4(1H)-one] | > 2000 | > 2000 | > 2000 | > 2000 | > 10000 | > 2000 | > 2000 | > 2000 | > 2000 | – | – | – | – | – | – | – | – | – |
| CC(=O)c1c([S+]([O-])Cc2ccccc2)nc2c(Br)ccc(Cl)c2c1O (stereo not drawn) [Compound 53, 1-(2-(benzylsulfinyl)-8-bromo-5-chloro-4-hydroxyquinolin-3-yl)ethan-1-one] | > 2000 | > 2000 | > 2000 | > 2000 | > 10000 | > 2000 | > 2000 | > 2000 | > 2000 | – | – | – | – | – | – | – | – | – |
| CC(=O)c1c([S+]([O-])Cc2cc(C)on2)[nH]c2c(F)ccc(F)c2c1=O (stereo not drawn) [Compound 82, 3-acetyl-5,8-difluoro-2-(((5-methylisoxazol-3-yl)methyl)sulfinyl)quinolin-4(1H)-one] | – | – | – | – | – | – | – | – | – | > 2000 | > 2000 | > 2000 | > 2000 | > 10000 | > 2000 | > 2000 | > 2000 | > 2000 |
| COc1ccccc1[S+]([O-])c1[nH]c2c(Br)ccc(Cl)c2c(=O)c1C(C)=O (stereo not drawn) [Compound 15, 3-acetyl-8-bromo-5-chloro-2-((2-methoxyphenyl)sulfinyl)quinolin-4(1H)-one] | > 2000 | > 2000 | > 2000 | > 2000 | > 10000 | > 2000 | > 2000 | > 2000 | > 2000 | – | – | – | – | – | – | – | – | – |
| CC(=O)c1c([S+]([O-])Cc2ccccc2)nc2c(Br)ccc(Cl)c2c1O (stereo not drawn) [Compound 4] | 1840 | 1150 | 1580 | 1330 | > 10000 | 1800 | > 2000 | 1330 | 1550 | – | – | – | – | – | – | – | – | – |
| CC(=O)c1c([S+]([O-])Cc2nonc2C)[nH]c2c(Br)ccc(Cl)c2c1=O (stereo not drawn) [Compound 106, 3-acetyl-8-bromo-5-chloro-2-(((4-methyl-1,2,5-oxadiazol-3-yl)methyl)sulfinyl)quinolin-4(1H)-one] | – | – | – | – | – | – | – | – | – | > 2000 | > 2000 | > 2000 | > 2000 | > 10000 | > 2000 | > 2000 | > 2000 | > 2000 |
| CC(=O)c1c(SCc2cc(F)cc(F)c2)[nH]c2c(Br)ccc(Cl)c2c1=O [Compound 45, 3-acetyl-8-bromo-5-chloro-2-((3,5-difluorobenzyl)thio)quinolin-4(1H)-one] | > 2000 | > 2000 | > 2000 | > 2000 | > 10000 | > 2000 | > 2000 | > 2000 | > 2000 | – | – | – | – | – | – | – | – | – |
| CC(=O)c1c([S+]([O-])Cc2ccc(C(F)(F)F)nc2C)[nH]c2c(Br)ccc(Cl)c2c1=O (stereo not drawn) [Compound 102, 3-acetyl-8-bromo-5-chloro-2-(((2-methyl-6-(trifluoromethyl)pyridin-3-yl)methyl)sulfinyl)quinolin-4(1H)-one] | – | – | – | – | – | – | – | – | – | 1160 | 1220 | 1240 | 1330 | > 10000 | 1940 | 1190 | 1600 | 1220 |
